Measurements published in patent publication US10064891B2, “Assembly of micelle aggregates of surfactant micelles and silver nanoparticles and use as antibacterial agent” (Otago Innovation Limited, priority 2013, dated 2018).

Tests used:
[1] = Determination of cmc / cmceff by electrical conductivity; format: physicochemical; settings: H2O, 25° C.; for cmc of pure surfactant (cmceff at 0 mM AgNO3): no AgNO3
Protocol: Electrical conductivity measurements (mS cm^−1) were performed on five SDS solutions over a range of concentrations, with each solution containing a different amount of added AgNO3. […] Standard deviations for each data point are <0.014 mS cm^−1 in all cases. Closed symbols represent the data points used for the linear regression analysis below the cmc, and the open symbols for the analysis above the cmc. For each sample, regardless of the electrolyte content, as the SDS concentration was varied, an inflection point in the electrical conductivity was observed, indicating the cmc. A linear regression analysis of the conductivity data of each of the five samples was performed above and below the inflection point. In all cases, no significant deviations from linearity were observed over the concentration ranges. A dashed line has been added to one data set to indicate the point of intersection of the two corresponding linear equations, thus indicating the cmc. The cmc of pure SDS in H2O in the absence of AgNO3 was determined to be 8.1 mM. The curve represents a critical ‘cmc boundary’ for the SDS/AgNO3 system, i.e. the cmceff of SDS at a given AgNO3 concentration between 0-10 mM.
Following the procedure detailed in Example 1, electrical conductivity measurements were performed on sodium dodecylbenzenesulfonate (SDBS), sodium lauryl ether sulfate (SLES) and ammonium lauryl sulfate (ALS) solutions containing different amounts of added AgNO3 in order to determine the cmceff of each surfactant. […] Linear regression analysis was performed as described in Example 1. The cmc of pure SDBS, SLES and ALS at 25° C. was determined to be 1.4, 3.1 and 6.7 mM, respectively.

[2] = absence of any salts; cited from earlier work

Row | Molecule | Cmceff ([1]; [AgNO3] 0.6 mM) [mM] | cmc of pure surfactant (cmceff at 0 mM AgNO3) [1] [mM] | cmc of pure SDS in water (known) [2] [mM] | Cmceff ([1]; [AgNO3] 2.9 mM) [mM]
1 | CCCCCCCCCCCCOS(=O)(=O)O.N [ALS, ammonium lauryl sulfate] | 4.6 | 6.7 |  | 
2 | CCCCCCCCCCCCOS(=O)(=O)[O-].[Na+] [SDS, sodium dodecyl sulfate] |  | 8.1 | 8.0 to 8.3 | 
3 | sodium lauryl ether sulfate [SLES] | 2.1 | 3.1 |  | 1.9
